These results are taken from PubChem BioAssay AID330 (DTP/NCI, 2004).

This experiment has as its system P388 leukemia ip, CD2F1 mice, survival T/C. Briefly: NCI In Vivo Anticancer Drug Screen. Data for tumor model P388 Leukemia (intraperitoneal) in CD2F1 (CDF1) mice. Conditions: endpoint: median survival time, higher = longer survival. The method in brief: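 Mice carrying the transplanted tumor received test compound or vehicle. Survival was recorded in each group, and the value is the treated-group measurement divided by that of the vehicle-treated control group.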

The mark [1] stands for this setting: dose: 50.0 mg/kg/injection, schedule: Q01DX009 (ip), vehicle: Klucel (hydroxypropylcellulose) (HPC).
[2] abbreviates: dose: 100.0 mg/kg/injection, schedule: Q01DX009 (ip), vehicle: Klucel (hydroxypropylcellulose) (HPC).
[3] abbreviates: dose: 200.0 mg/kg/injection, schedule: Q01DX009 (ip), vehicle: Klucel (hydroxypropylcellulose) (HPC).
Where [4] appears, read: dose: 50.0 mg/kg/injection, schedule: Q01DX005 (ip), vehicle: Klucel (hydroxypropylcellulose) (HPC).
Where [5] appears, read: dose: 100.0 mg/kg/injection, schedule: Q01DX005 (ip), vehicle: Klucel (hydroxypropylcellulose) (HPC).
The mark [6] stands for this setting: dose: 200.0 mg/kg/injection, schedule: Q01DX005 (ip), vehicle: Klucel (hydroxypropylcellulose) (HPC).

“And” between values parts separate entries of the source, which are not always exact repeats. Equal entries are not always repeated. Inconclusive results and toxic doses are left out.

On to `NC(=NCCSCc1ccccc1)NCCc1cnc[nH]1`, for which the T/C by setting is: (dose: 100.0 mg/kg/injection, schedule: Q01DX001 (ip), vehicle: saline with Tween-80) 102 % of control; (dose: 200.0 mg/kg/injection, schedule: Q01DX001 (ip), vehicle: saline with Tween-80) 102 % of control; (dose: 400.0 mg/kg/injection, schedule: Q01DX001 (ip), vehicle: saline with Tween-80) 98 % of control.

For the compound `COc1ccc(/C=C(/C#N)c2ccccc2)cc1`, the T/C by setting is: (dose: 100.0 mg/kg/injection, schedule: Q04DX003 (ip), vehicle: other) 100 % of control; (dose: 200.0 mg/kg/injection, schedule: Q04DX003 (ip), vehicle: other) 100 % of control; (dose: 400.0 mg/kg/injection, schedule: Q04DX003 (ip), vehicle: other) 104 % of control.

As to `CC(C)O[Si](OC(C)C)(OC(C)C)OC(C)C`, the T/C runs as follows: under setting [1], 101 % of control; under setting [2], 105 % of control; under setting [3], 105 % of control.

For the compound `O=C/C=C/C=C/C=C/c1ccccc1`, the T/C (dose: 60.0 mg/kg/injection, schedule: Q01DX005 (ip), vehicle: distilled water + alcohol) is 100 % of control; the T/C (dose: 120.0 mg/kg/injection, schedule: Q01DX005 (ip), vehicle: distilled water + alcohol) is 100 % of control; the T/C (dose: 240.0 mg/kg/injection, schedule: Q01DX005 (ip), vehicle: distilled water + alcohol) is 96 % of control.

For the compound `Cc1ccc(Br)c(C(O)(C(F)(F)F)C(F)(F)F)c1C`, the T/C is, setting by setting: under setting [1], 107 % of control; under setting [2], 106 % of control.

Regarding `O=c1c2ccccc2c(Br)c(Br)c2ccccc12`, the T/C runs as follows: (dose: 60.0 mg/kg/injection, schedule: Q01DX005 (ip), vehicle: saline with Tween-80) 106 % of control; (dose: 120.0 mg/kg/injection, schedule: Q01DX005 (ip), vehicle: saline with Tween-80) 110 % of control; (dose: 240.0 mg/kg/injection, schedule: Q01DX005 (ip), vehicle: saline with Tween-80) 109 % of control.

Regarding `Nn1nnc(-c2ccccc2)n1`, the T/C reads like this: under setting [1], 96 % of control; under setting [2], 96 % of control; under setting [3], 97 % of control.

For the compound `COC1=CC(=O)OC1n1ccc(OC)nc1=O` (stereo unspecified), the T/C under setting [4] is 100 % of control, the T/C under setting [5] was 95 % of control and the T/C under setting [6] was 95 % of control.

Take `CCCn1cc2c3c(cccc31)C1C=C(C)CN(C)C1C2` (stereo unspecified): the T/C is 100 % of control and 107 % of control (dose: 6.25 mg/kg/injection, schedule: Q01DX005 (ip), vehicle: saline with Tween-80); 99 % of control and 100 % of control and 116 % of control (dose: 12.5 mg/kg/injection, schedule: Q01DX005 (ip), vehicle: saline with Tween-80); 98 % of control and 105 % of control and 108 % of control (dose: 25.0 mg/kg/injection, schedule: Q01DX005 (ip), vehicle: saline with Tween-80); 117 % of control (dose: 100.0 mg/kg/injection, schedule: Q01DX005 (ip), vehicle: saline with Tween-80).

As for `COc1c(Br)cc(/C=C/[N+](=O)[O-])cc1Br`, the T/C by setting is: (dose: 6.25 mg/kg/injection, schedule: Q01DX009 (ip), vehicle: saline with Tween-80) 124 % of control; (dose: 12.5 mg/kg/injection, schedule: Q01DX009 (ip), vehicle: saline with Tween-80) 112 % of control.

As to `CC1=NOC2C1Sc1ccccc1N2C` (stereo unspecified), the T/C is 103 % of control under setting [4], 102 % of control under setting [5] and 100 % of control under setting [6].

Turning to `Cc1[nH]ccc(=O)c1OC(=O)C12CC3CC(CC(C3)C1)C2`, the T/C runs as follows: under setting [4], 94 % of control and 98 % of control; under setting [5], 91 % of control and 97 % of control; under setting [6], 101 % of control and 95 % of control; (dose: 400.0 mg/kg/injection, schedule: Q01DX005 (ip), vehicle: Klucel (hydroxypropylcellulose) (HPC)) 103 % of control and 98 % of control.

For `COc1ccc(OC)c(CC(CC(=O)O)C(C)=O)c1` (stereo unspecified), the T/C runs as follows: (dose: 25.0 mg/kg/injection, schedule: Q01DX009 (ip), vehicle: other) 97 % of control; (dose: 50.0 mg/kg/injection, schedule: Q01DX009 (ip), vehicle: other) 100 % of control; (dose: 100.0 mg/kg/injection, schedule: Q01DX009 (ip), vehicle: other) 100 % of control; (dose: 200.0 mg/kg/injection, schedule: Q01DX009 (ip), vehicle: other) 101 % of control; (dose: 400.0 mg/kg/injection, schedule: Q01DX009 (ip), vehicle: other) 108 % of control.

In the case of `C1CCC2C[N-]CCC2C1.C1CCC2C[N-]CCC2C1.C1CCC2C[N-]CCC2C1.C1CCC2C[N-]CCC2C1.[Cl][Rh][Cl]` (stereo unspecified), the T/C is 105 % of control (dose: 0.06 mg/kg/injection, schedule: Q03HX024 (ip), vehicle: saline); 113 % of control (dose: 0.13 mg/kg/injection, schedule: Q03HX008 (ip), vehicle: saline); 105 % of control (dose: 0.13 mg/kg/injection, schedule: Q03HX016 (ip), vehicle: saline); 100 % of control (dose: 0.13 mg/kg/injection, schedule: Q03HX024 (ip), vehicle: saline); 107 % of control (dose: 0.25 mg/kg/injection, schedule: Q01DX009 (ip), vehicle: saline); 118 % of control (dose: 0.25 mg/kg/injection, schedule: Q03HX008 (ip), vehicle: saline). For the same compound, the T/C by setting is: (dose: 0.25 mg/kg/injection, schedule: Q03HX016 (ip), vehicle: saline) 110 % of control; (dose: 0.25 mg/kg/injection, schedule: Q03HX024 (ip), vehicle: saline) 108 % of control; (dose: 0.5 mg/kg/injection, schedule: Q01DX009 (ip), vehicle: saline) 110 % of control; (dose: 0.5 mg/kg/injection, schedule: Q03HX008 (ip), vehicle: saline) 123 % of control; (dose: 0.5 mg/kg/injection, schedule: Q03HX016 (ip), vehicle: saline) 116 % of control; (dose: 0.5 mg/kg/injection, schedule: Q03HX024 (ip), vehicle: saline) 117 % of control. The T/C by setting is: (dose: 0.5 mg/kg/injection, schedule: Q04DX003 (ip), vehicle: saline) 111 % of control; (dose: 1.0 mg/kg/injection, schedule: Q01DX001 (ip), vehicle: saline) 118 % of control; (dose: 1.0 mg/kg/injection, schedule: Q03HX008 (ip), vehicle: saline) 121 % of control; (dose: 1.0 mg/kg/injection, schedule: Q03HX016 (ip), vehicle: saline) 115 % of control; (dose: 1.0 mg/kg/injection, schedule: Q04DX003 (ip), vehicle: saline) 113 % of control; (dose: 1.0 mg/kg/injection, schedule: Q08DX002 (ip), vehicle: saline) 114 % of control. Also, the T/C is, setting by setting: (dose: 1.3 mg/kg/injection, schedule: Q01DX009 (ip), vehicle: water) 111 % of control; (dose: 2.0 mg/kg/injection, schedule: Q01DX001 (ip), vehicle: saline) 119 % of control; (dose: 2.0 mg/kg/injection, schedule: Q03HX008 (ip), vehicle: saline) 119 % of control; (dose: 2.0 mg/kg/injection, schedule: Q04DX003 (ip), vehicle: saline) 115 % of control; (dose: 2.0 mg/kg/injection, schedule: Q08DX002 (ip), vehicle: saline) 121 % of control; (dose: 3.0 mg/kg/injection, schedule: Q01DX009 (ip), vehicle: water) 111 % of control. Besides, the T/C was 150 % of control (dose: 3.13 mg/kg/injection, schedule: Q04DX003 (ip), vehicle: saline with Tween-80); 118 % of control (dose: 4.0 mg/kg/injection, schedule: Q01DX001 (ip), vehicle: saline); 110 % of control (dose: 4.0 mg/kg/injection, schedule: Q03HX016 (ip), vehicle: saline); 124 % of control (dose: 4.0 mg/kg/injection, schedule: Q04DX003 (ip), vehicle: saline); 123 % of control (dose: 4.0 mg/kg/injection, schedule: Q08DX002 (ip), vehicle: saline); 150 % of control (dose: 6.25 mg/kg/injection, schedule: Q04DX003 (ip), vehicle: saline with Tween-80). The T/C (dose: 8.0 mg/kg/injection, schedule: Q08DX002 (ip), vehicle: saline) was 123 % of control and the T/C (dose: 12.5 mg/kg/injection, schedule: Q04DX003 (ip), vehicle: saline with Tween-80) was 90 % of control.

Consider `O=C(O)c1cccc2c1C(=O)c1cccc3snc-2c13`, for which the T/C is 101 % of control under setting [4], 99 % of control under setting [5] and 109 % of control under setting [6].
